From patent publication US5041567A, “Antibacterial monic acid derivatives” (Beecham Group plc, priority 1982, dated 1991)
Values after ≈ are worked out from the molar mass of the structure shown. Where two headings read alike, the source gives them in different places.

Legend:
Strep. faecalis I = assay: MIC against human bacteria in vitro; format: cell-based; details: Enterococcus faecalis; Strep. faecalis I; 5% chocolated horse blood agar, 18 hours; read-out: MIC
P. mirabilis 889 = assay: MIC against human bacteria in vitro; format: cell-based; details: Proteus mirabilis; P. mirabilis 889; 5% chocolated horse blood agar, 18 hours; read-out: MIC
[1] = tested on: M. suipneumoniae NCTC 10110; assay: MIC against mycoplasma in vitro; format: cell-based; details: Mesomycoplasma hyopneumoniae, NCTC10110, 144 h
M. suipneumoniae TAM 6N = assay: MIC against mycoplasma in vitro; format: cell-based; details: Mesomycoplasma hyopneumoniae, TAM6N, 144 h
M. hyorhinis ATCC 25021 = assay: MIC against mycoplasma in vitro; format: cell-based; details: Mesomycoplasma hyorhinis, ATCC25021, 144 h
M. hyorhinis ATCC 23234 = assay: MIC against mycoplasma in vitro; format: cell-based; details: Mesomycoplasma hyorhinis, ATCC23234, 144 h
Sarcina lutea 8340 = assay: MIC against human bacteria in vitro; format: cell-based; details: Micrococcus luteus; Sarcina lutea 8340; 5% chocolated horse blood agar, 18 hours; read-out: MIC
Bacillus subtilis 6633 = assay: MIC against human bacteria in vitro; format: cell-based; details: Bacillus subtilis 6633; 5% chocolated horse blood agar, 18 hours; read-out: MIC
S. typhimurium S18 = assay: MIC against veterinary bacteria in vitro; details: Salmonella enterica, TYPHIMURIUM, 18 h
Protocol: (§1) The activity of the compounds of the Examples against various veterinarily important bacteria, was assayed in vitro using two-fold serial dilutions in Diagnostic Sensitivity Test Agar inoculated with 10^4 organisms.

M. pneumoniae ATCC 15492 = assay: MIC against mycoplasma in vitro; format: cell-based; details: Mycoplasmoides pneumoniae, ATCC15492, 144 h; M. pneumoniae ATCC 15492; 6 days, 37° C.; read-out: MIC
M. suipneumoniae JF 435 = assay: MIC against mycoplasma in vitro; format: cell-based; details: Mesomycoplasma hyopneumoniae, JF435, 144 h
[2] = tested on: Neisseria catarrhalis 1502; assay: MIC against human bacteria in vitro; format: cell-based; details: Neisseria catarrhalis 1502; 5% chocolated horse blood agar, 18 hours; read-out: MIC
[3] = tested on: M. suipneumoniae ATCC 25095; assay: MIC against mycoplasma in vitro; format: cell-based; details: Mesomycoplasma hyopneumoniae, ATCC25095, 144 h
M. suipneumoniae LABER = assay: MIC against mycoplasma in vitro; format: cell-based; details: Mesomycoplasma hyopneumoniae, 144 h
[4] = tested on: Pasteurella multocida 1633; assay: MIC against human bacteria in vitro; format: cell-based; details: Pasteurella multocida 1633; 5% chocolated horse blood agar, 18 hours; read-out: MIC
Bord. bronchiseptica B08 = assay: MIC against veterinary bacteria in vitro; details: Bordetella bronchiseptica, B08, 18 h
Protocol: as §1

E. coli ESS = assay: MIC against human bacteria in vitro; format: cell-based; details: Escherichia coli; E. coli ESS; 5% chocolated horse blood agar, 18 hours; read-out: MIC
Past. multocida PA2 = assay: MIC against veterinary bacteria in vitro; details: Pasteurella multocida, PA2, 18 h
Protocol: as §1

Staph. aureus Russell = assay: MIC against human bacteria in vitro; format: cell-based; details: Staphylococcus aureus; Staph. aureus Russell; 5% chocolated horse blood agar, 18 hours; read-out: MIC
[5] = tested on: Staph. aureus 152 (pen. sens); assay: MIC against veterinary bacteria in vitro; details: Staphylococcus aureus, 18 h
Protocol: as §1

M. dispar NCTC 10125 = assay: MIC against mycoplasma in vitro; format: cell-based; details: 144 h
Staph. aureus Oxford = assay: MIC against human bacteria in vitro; format: cell-based; details: Staphylococcus aureus; Staph. aureus Oxford; 5% chocolated horse blood agar, 18 hours; read-out: MIC
K. aerogenes A = assay: MIC against human bacteria in vitro; format: cell-based; details: Klebsiella aerogenes; K. aerogenes A; 5% chocolated horse blood agar, 18 hours; read-out: MIC
M. suipneumoniae MS 16 = assay: MIC against mycoplasma in vitro; format: cell-based; details: Mesomycoplasma hyopneumoniae, MS16, 144 h
[6] = tested on: M. hyosynoviae ATCC 25591; assay: MIC against mycoplasma in vitro; format: cell-based; details: 144 h; M. hyosynoviae ATCC 25591; 6 days, 37° C.; read-out: MIC
Staph. aureus W2827 = assay: MIC against human bacteria in vitro; format: cell-based; details: Staphylococcus aureus; Staph. aureus W2827; 5% chocolated horse blood agar, 18 hours; read-out: MIC
[7] = tested on: Strep. pyogenes R80/421-A; assay: MIC against human bacteria in vitro; format: cell-based; details: Streptococcus pyogenes; Strep. pyogenes R80/421-A; 5% chocolated horse blood agar, 18 hours; read-out: MIC
[8] = tested on: Staph. aureus B4 (pen. resistant); assay: MIC against veterinary bacteria in vitro; details: Staphylococcus aureus, 18 h
Protocol: as §1

Strep. uberis SPU1 = assay: MIC against veterinary bacteria in vitro; details: Streptococcus uberis, SPU1, 18 h
Protocol: as §1

E. coli E1 = assay: MIC against veterinary bacteria in vitro; details: Escherichia coli, E1, 18 h
Protocol: as §1

[9] = tested on: Strep. suis (group D) SPS11; assay: MIC against veterinary bacteria in vitro; details: Streptococcus suis, 18 h
Protocol: as §1

Strep. pneumoniae CN33 = assay: MIC against human bacteria in vitro; format: cell-based; details: Streptococcus pneumoniae; Strep. pneumoniae CN33; 5% chocolated horse blood agar, 18 hours; read-out: MIC
[10] = tested on: M. suipneumoniae J2206/183^b; assay: MIC against mycoplasma in vitro; format: cell-based; details: Mesomycoplasma hyopneumoniae, 144 h
M. suipneumoniae HK(2) = assay: MIC against mycoplasma in vitro; format: cell-based; details: Mesomycoplasma hyopneumoniae, 144 h
Strep. spp. 64/848-C = assay: MIC against human bacteria in vitro; format: cell-based; details: Strep. spp. 64/848-C; 5% chocolated horse blood agar, 18 hours; read-out: MIC
[11] = M. suipneumoniae NCTC 10110, 6 days, 37° C., read-out: MIC
[12] = M. suipneumoniae TAM 6N, 6 days, 37° C., read-out: MIC
[13] = M. hyorhinis ATCC 25021, 6 days, 37° C., read-out: MIC
[14] = M. hyorhinis ATCC 23234, 6 days, 37° C., read-out: MIC
[15] = M. suipneumoniae JF 435, 6 days, 37° C., read-out: MIC
[16] = M. suipneumoniae ATCC 25095, 6 days, 37° C., read-out: MIC
[17] = M. suipneumoniae LABER, 6 days, 37° C., read-out: MIC
[18] = M. dispar NCTC 10125, 6 days, 37° C., read-out: MIC
[19] = M. suipneumoniae MS 16, 6 days, 37° C., read-out: MIC
[20] = M. suipneumoniae J2206/183^b, 6 days, 37° C., read-out: MIC
[21] = M. suipneumoniae HK(2), 6 days, 37° C., read-out: MIC

Row | Compound | MIC (Strep. faecalis I) | MIC (P. mirabilis 889) | MIC (Bacillus subtilis 6633) | MIC (S. typhimurium S18) | MIC (M. pneumoniae ATCC 15492) | MIC [2] | MIC [4] | MIC (Bord. bronchiseptica B08) | MIC (E. coli ESS) | MIC (Staph. aureus Russell) | MIC [5] | MIC (Staph. aureus Oxford) | MIC (K. aerogenes A) | MIC [6] | MIC (Staph. aureus W2827) | MIC [7] | MIC [8] | MIC (Strep. uberis SPU1) | MIC (E. coli E1) | MIC [9] | other results
1 | COC(=O)c1ccc(-c2cnc(/C=C(\C)C[C@@H]3OC[C@H](C[C@@H]4O[C@H]4[C@@H](C)[C@H](C)O)[C@@H](O)[C@H]3O)o2)cc1 [Example 16, 5-p-Methoxycarbonylphenyl-2-(1-normon-2-yl) oxazole A] | > 64 µg/mL | > 64 µg/mL | 1 µg/mL (≈ 1.99 µM) | > 80 µg/mL | 1 µg/mL (≈ 1.99 µM) | 8 µg/mL (≈ 15.9 µM) | 16 µg/mL (≈ 31.9 µM) | > 80 µg/mL | 32 µg/mL (≈ 63.8 µM) | 4 µg/mL (≈ 7.97 µM) | 1.25 µg/mL (≈ 2.49 µM) | 4 µg/mL (≈ 7.97 µM) | > 64 µg/mL | 0.5 µg/mL (≈ 0.997 µM) | 4 µg/mL (≈ 7.97 µM) | 4 µg/mL (≈ 7.97 µM) | 5 µg/mL (≈ 9.97 µM) | 0.312 µg/mL (≈ 0.622 µM) | > 80 µg/mL | 20 µg/mL (≈ 39.9 µM) | MIC [1, 11]: 0.5 µg/mL (≈ 0.997 µM); MIC (M. suipneumoniae TAM 6N; [12]): 0.5 µg/mL (≈ 0.997 µM); MIC (M. hyorhinis ATCC 25021; [13]): 0.25 µg/mL (≈ 0.498 µM); MIC (M. hyorhinis ATCC 23234; [14]): 0.25 µg/mL (≈ 0.498 µM); MIC (Sarcina lutea 8340): > 64 µg/mL; MIC (M. suipneumoniae JF 435; [15]): 0.5 µg/mL (≈ 0.997 µM); MIC [3, 16]: 0.25 µg/mL (≈ 0.498 µM); MIC (M. suipneumoniae LABER; [17]): 0.25 µg/mL (≈ 0.498 µM); MIC (Past. multocida PA2): < 0.039 µg/mL; MIC (M. dispar NCTC 10125; [18]): 0.1 µg/mL (≈ 0.199 µM); MIC (M. suipneumoniae MS 16; [19]): 0.25 µg/mL (≈ 0.498 µM); MIC (Strep. pneumoniae CN33): 4 µg/mL (≈ 7.97 µM); MIC [10, 20]: 0.5 µg/mL (≈ 0.997 µM); MIC (M. suipneumoniae HK(2); [21]): 0.5 µg/mL (≈ 0.997 µM)
2 | C/C(=C\c1cc(-c2ccccc2)no1)C[C@@H]1OC[C@H](C[C@@H]2O[C@H]2[C@@H](C)[C@H](C)O)[C@@H](O)[C@H]1O [Example 31, 5-(1-Normon-2-yl)-3-phenylisoxazole A] | > 128 µg/mL | > 128 µg/mL | 64 µg/mL (≈ 144 µM) | > 80 µg/mL | > 10 µg/mL | 8 µg/mL (≈ 18 µM) | 64 µg/mL (≈ 144 µM) | > 80 µg/mL | 64 µg/mL (≈ 144 µM) | 128 µg/mL (≈ 289 µM) | 10 µg/mL (≈ 22.5 µM) | 64 µg/mL (≈ 144 µM) | > 128 µg/mL | 10 µg/mL (≈ 22.5 µM) | 128 µg/mL (≈ 289 µM) | 128 µg/mL (≈ 289 µM) | 10 µg/mL (≈ 22.5 µM) | 40 µg/mL (≈ 90.2 µM) | > 80 µg/mL | > 80 µg/mL | MIC [1, 11]: 10 µg/mL (≈ 22.5 µM); MIC (M. suipneumoniae TAM 6N; [12]): 10 µg/mL (≈ 22.5 µM); MIC (M. hyorhinis ATCC 25021; [13]): 5 µg/mL (≈ 11.3 µM); MIC (M. hyorhinis ATCC 23234; [14]): 5 µg/mL (≈ 11.3 µM); MIC (M. suipneumoniae JF 435; [15]): 10 µg/mL (≈ 22.5 µM); MIC [3, 16]: 5 µg/mL (≈ 11.3 µM); MIC (M. suipneumoniae LABER; [17]): 10 µg/mL (≈ 22.5 µM); MIC (M. dispar NCTC 10125): 2.5 µg/mL (≈ 5.64 µM); MIC (M. suipneumoniae MS 16; [19]): 5 µg/mL (≈ 11.3 µM); MIC (Strep. spp. 64/848-C): > 128 µg/mL; MIC (Strep. pneumoniae CN33): > 128 µg/mL; MIC [10, 20]: 10 µg/mL (≈ 22.5 µM); MIC (M. suipneumoniae HK(2); [21]): 10 µg/mL (≈ 22.5 µM)
3 | C/C(=C\c1cc(-c2ccccc2)on1)C[C@@H]1OC[C@H](C[C@@H]2O[C@H]2[C@@H](C)[C@H](C)O)[C@@H](O)[C@H]1O [Example 34, 3-(1-Normon-2-yl)-5-phenylisoxazole A] | > 128 µg/mL | > 128 µg/mL | 4 µg/mL (≈ 9.02 µM) | > 80 µg/mL | 5 µg/mL (≈ 11.3 µM) | 4 µg/mL (≈ 9.02 µM) | 64 µg/mL (≈ 144 µM) | > 80 µg/mL | 16 µg/mL (≈ 36.1 µM) | 16 µg/mL (≈ 36.1 µM) | 2.5 µg/mL (≈ 5.64 µM) | 8 µg/mL (≈ 18 µM) | > 128 µg/mL | 5 µg/mL (≈ 11.3 µM) | 16 µg/mL (≈ 36.1 µM) | 8 µg/mL (≈ 18 µM) | 2.5 µg/mL (≈ 5.64 µM) | 5 µg/mL (≈ 11.3 µM) | > 80 µg/mL | 80 µg/mL (≈ 180 µM) | MIC [1]: 2.5 µg/mL (≈ 5.64 µM); MIC (M. suipneumoniae TAM 6N): 2.5 µg/mL (≈ 5.64 µM); MIC (M. hyorhinis ATCC 25021): 1 µg/mL (≈ 2.25 µM); MIC (M. hyorhinis ATCC 23234): 2.5 µg/mL (≈ 5.64 µM); MIC (M. suipneumoniae JF 435): 2.5 µg/mL (≈ 5.64 µM); MIC [3]: 1 µg/mL (≈ 2.25 µM); MIC (M. suipneumoniae LABER): 1 µg/mL (≈ 2.25 µM); MIC (M. dispar NCTC 10125; [18]): 0.5 µg/mL (≈ 1.13 µM); MIC (M. suipneumoniae MS 16): 1 µg/mL (≈ 2.25 µM); MIC (Strep. spp. 64/848-C): 64 µg/mL (≈ 144 µM); MIC (Strep. pneumoniae CN33): 64 µg/mL (≈ 144 µM); MIC [10]: 2.5 µg/mL (≈ 5.64 µM); MIC (M. suipneumoniae HK(2)): 2.5 µg/mL (≈ 5.64 µM)
